For test [1], the system named is Clostridioides difficile clinical isolate growth, OD600, 24 h. Briefly: antibacterial activity against Clostridioides difficile – 10-point retest, dose response (AID 1259246).
Assay in test [2]: as above
To be noted: Clostridioides difficile clinical isolate growth, OD600, 24 h.

Values joined by “and” are separate entries in the source; they are usually repeats but may differ in a detail not shown here. Equal values may be shown once. Results filed as inconclusive are left out. Active and inactive are the calls of the source.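 Rule for the calls: active = valid dose-response fit whose half-maximal growth-inhibiting concentration is at or below a set limit above the top tested dose; inconclusive = flat fit with effect between 30 and 70%, or poor fit; inactive = half-maximal concentration above a set limit.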 Some results are limits rather than exact numbers.

Usually IC50 stands for the concentration that gives 50% inhibition. Regarding `CO[C@H]1CN(C)C(=O)c2ccc(NC(=O)Nc3cc(Cl)cc(Cl)c3)cc2OC[C@@H](C)NC[C@H]1C`, the IC50 in test [1] is 11.6 µM. For the same compound, in test [2] (at 120 µM (top of the series)), the activity change, negative = inhibition is 23.1% (inactive).

As for `O=C(NCC[C@H]1CC[C@@H](NC(=O)C2CC2)[C@H](CO)O1)Nc1ccc(C(F)(F)F)cc1`, in test [1], the IC50 was 13.5 µM. Besides, the activity change, negative = inhibition in test [2] (at 120 µM (top of the series)) is -4.12% (inactive).

Turning to `O=C(NCC[C@H]1CC[C@H](NC(=O)C2CC2)[C@H](CO)O1)Nc1ccc(C(F)(F)F)cc1`, the half-maximal inhibitory concentration (IC50) in test [1] was 28.4 µM. Moreover, the activity change, negative = inhibition in test [2] (at 120 µM (top of the series)) is -1.84% (inactive).

Consider `CO[C@@H]1CN(C)C(=O)c2ccc(NC(=O)Nc3cc(Cl)cc(Cl)c3)cc2OC[C@H](C)NC[C@@H]1C`, for which the IC50 in test [1] is 74.6 µM. Besides, the activity change, negative = inhibition in test [2] (at 120 µM (top of the series)) was 4.74% (inactive).

For `CC(C)Cc1ccc(CN2CC[C@@H](NS(=O)(=O)c3ccccc3)C2)cc1`, the IC50 in test [1] is 56 µM. Further, in test [2] (at 60 µM (top of the series)), the activity change, negative = inhibition was 4.46% (inactive).

Regarding `Cc1ccc(F)cc1S(=O)(=O)N[C@@H]1CCN(Cc2ccc(OC(C)C)cc2)C1`, the IC50 in test [1] was 29.6 µM. Further, the activity change, negative = inhibition in test [2] (at 120 µM (top of the series)) is 21.4% (inactive).

`COc1ccc(S(=O)(=O)N(C)C[C@H]2Oc3ccc(NC(=O)Nc4ccc(C(F)(F)F)cc4)cc3C(=O)N([C@@H](C)CO)C[C@@H]2C)cc1`: the IC50 in test [1] was 51.2 µM.

As for `C[C@@H]1CN([C@@H](C)CO)C(=O)Cc2cc(NC(=O)CCCN(C)C)ccc2O[C@@H]1CN(C)Cc1ccc(-c2ccccc2)cc1`, in test [1], the IC50 is 7.29 µM. Besides, in test [2] (at 110 µM (top of the series)), the activity change, negative = inhibition is 88.3% (inactive).

Consider `CNC[C@@H]1Oc2ccc(NC(=O)Nc3ccccc3)cc2CC(=O)N([C@@H](C)CO)C[C@H]1C`, for which the IC50 in test [1] was > 270 µM (inactive).

With `O=C(C[C@@H]1CC[C@H]2[C@@H](COC[C@H](O)CN2S(=O)(=O)c2ccccc2)O1)NCC1CCCCC1`, in test [1], the IC50 is 35.1 µM.

As to `C[C@H]1CN([C@@H](C)CO)S(=O)(=O)c2ccc(C#Cc3ccc(F)cc3)cc2O[C@@H]1CN(C)C`, the IC50 in test [1] is 69.9 µM.

On to `C[C@@H]1CN([C@@H](C)CO)C(=O)c2cccc(NC(=O)Nc3ccc4c(c3)OCO4)c2O[C@@H]1CN(C)Cc1ccc(Oc2ccccc2)cc1`, for which the IC50 in test [1] is less than 0.26 µM.

With `CO[C@H]1CN(C)C(=O)c2ccc(NC(=O)Nc3ccc(Cl)c(Cl)c3)cc2OC[C@H](C)NC[C@@H]1C`, the half-maximal inhibitory concentration (IC50) in test [1] was 37.6 µM.

As to `CO[C@H]1CN(C)C(=O)c2ccc(NC(=O)Nc3cc(Cl)cc(Cl)c3)cc2OC[C@@H](C)NC[C@@H]1C`, in test [1], the IC50 was 34.1 µM. In test [2] (at 30 µM (top of the series)), the activity change, negative = inhibition was 32.6% (inactive).

Consider `CO[C@@H](CN(C)C(=O)C1CCOCC1)[C@@H](C)CN(C(=O)Nc1ccc(C(F)(F)F)cc1)[C@@H](C)CO`, for which the IC50 in test [1] was 38.8 µM.

As to `C[C@@H]1CN([C@@H](C)CO)C(=O)c2ccccc2-c2ccccc2CO[C@H]1CN(C)Cc1ccccc1C(F)(F)F`, the IC50 in test [1] is 19.5 µM.

In the case of `CO[C@H]1CN(C)C(=O)c2ccc(NC(=O)c3nc4ccccc4s3)cc2OC[C@@H](C)N(Cc2ccncc2)C[C@@H]1C`, the IC50 in test [1] is > 240 µM (inactive).

For `C[C@@H]1CN([C@@H](C)CO)C(=O)c2cccc(NC(=O)Nc3ccccc3)c2O[C@@H]1CN(C)Cc1ccc(-c2ccccc2)cc1`, the concentration for half-maximal inhibition (IC50) in test [1] is 3.3 µM and 1.93 µM and 5.49 µM.

As to `CN(C)CC(=O)N1[C@H](C#N)[C@H](c2ccc(C#CC3CCCCC3)cc2)[C@@H]1CO`, the IC50 in test [1] is 65.2 µM.

For `C[C@@H]1CN([C@@H](C)CO)C(=O)c2cccc(NC(=O)Nc3ccc(C(F)(F)F)cc3)c2O[C@@H]1CN(C)Cc1ccc(Oc2ccccc2)cc1`, in test [1], the IC50 is 0.443 µM and 0.73 µM.

In the case of `CO[C@H]1CN(C)C(=O)c2cc(NC(=O)Nc3ccc(Cl)c(Cl)c3)ccc2OC[C@H](C)NC[C@H]1C`, in test [1], the IC50 was 15.7 µM and 26.5 µM.

On to `C[C@@H]1CN([C@@H](C)CO)S(=O)(=O)c2ccc(/C=C/c3ccccc3)cc2O[C@H]1CN(C)Cc1ccc(C(=O)O)cc1`, for which the IC50 in test [1] was 3.3 µM.

In the case of `CO[C@H]1CN(C)C(=O)c2cc(NC(=O)Nc3cc(Cl)cc(Cl)c3)ccc2OC[C@@H](C)NC[C@@H]1C`, in test [1], the IC50 was 33.9 µM and 6.17 µM.

As for `O=C(NCC[C@@H]1CC[C@H](NC(=O)C2CC2)[C@@H](CO)O1)Nc1ccc(C(F)(F)F)cc1`, in test [1], the IC50 is 8.56 µM. For the same compound, the activity change, negative = inhibition in test [2] (at 120 µM (top of the series)) was 2.87% (inactive).

As for `CNC[C@@H]1Oc2cc(C#CCC3CCCC3)ccc2S(=O)(=O)N([C@H](C)CO)C[C@H]1C`, the IC50 in test [1] is 68.6 µM.

Consider `O=C(NCC[C@@H]1CC[C@H](NC(=O)Nc2cc(F)ccc2F)[C@H](CO)O1)Nc1ccc(Cl)cc1`, for which the IC50 in test [1] was > 240 µM (inactive).

Take `O=C(NCC[C@@H]1CC[C@H](NC(=O)C2CC2)[C@H](CO)O1)Nc1ccc(C(F)(F)F)cc1`: the IC50 in test [1] was 15 µM. Besides, the activity change, negative = inhibition in test [2] (at 120 µM (top of the series)) was -0.062% (inactive).

`CO[C@H]1CN(C)C(=O)c2cc(NC(=O)Nc3cc(Cl)cc(Cl)c3)ccc2OC[C@H](C)NC[C@@H]1C`: the IC50 in test [1] is 34 µM and 55 µM.

Turning to `C[C@H](CO)N1C[C@H](C)[C@H](CN(C)C(=O)Nc2ccccc2)Oc2c(NC(=O)Nc3ccc(C(F)(F)F)cc3)cccc2C1=O`, the IC50 in test [1] is 19.8 µM.

Take `C[C@@H]1CN([C@H](C)CO)C(=O)Cc2cc(NC(=O)CCCN(C)C)ccc2O[C@H]1CN(C)Cc1ccc(-c2ccccc2)cc1`: the IC50 in test [1] is 74.7 µM and 48 µM.

`CNC[C@H]1Oc2cc(C#CC3CCCCC3)ccc2S(=O)(=O)N([C@H](C)CO)C[C@@H]1C`: the IC50 in test [1] is 63.8 µM.

As to `CO[C@@H]1CN(C)C(=O)c2cc(NC(=O)Nc3cc(Cl)cc(Cl)c3)ccc2OC[C@H](C)NC[C@@H]1C`, the IC50 in test [1] was 37.8 µM and 35.6 µM.

For `COc1cccc(C#Cc2ccc([C@H]3[C@@H](CO)N(C(=O)C4CCCCC4)[C@H]3C#N)cc2)c1`, the IC50 in test [1] is 77.8 µM. Besides, the activity change, negative = inhibition in test [2] (at 75 µM (top of the series)) was 12.9% (inactive).

With `O=C(NCC[C@H]1CC[C@@H](NC(=O)C2CC2)[C@@H](CO)O1)Nc1ccc(C(F)(F)F)cc1`, in test [1], the IC50 was 8.52 µM. Further, the activity change, negative = inhibition in test [2] (at 120 µM (top of the series)) is 4.63% (inactive).

In the case of `CC(C)CC#Cc1ccc2c(c1)O[C@H](CN(C)Cc1ccc(C(=O)O)cc1)[C@@H](C)CN([C@H](C)CO)S2(=O)=O`, the IC50 in test [1] is 42.9 µM.

As to `Cc1ccc(F)cc1S(=O)(=O)N[C@@H]1CCN(Cc2ccc(CC(C)C)cc2)C1`, in test [1], the IC50 is 14.3 µM.

In the case of `O=C(C[C@H]1CC[C@@H]2[C@H](COC[C@@H](O)CN2S(=O)(=O)c2ccccc2)O1)NCC1CCCCC1`, the IC50 in test [1] was 52.4 µM.

As for `C[C@H](CO)N1C[C@H](C)[C@@H](CN(C)Cc2ccc(C(=O)O)cc2)Oc2cc(/C=C/c3ccccc3)ccc2S1(=O)=O`, the IC50 in test [1] is > 120 µM (inactive).

`C[C@@H]1CN([C@@H](C)CO)C(=O)c2cccc(NC(=O)Nc3ccccc3)c2O[C@@H]1CN(C)Cc1ccc(Oc2ccccc2)cc1`: the IC50 in test [1] is 1.2 µM and 0.402 µM and < 0.235 µM.

`C[C@H](CO)N1C[C@H](C)[C@H](CN(C)C(=O)NC2CCCCC2)Oc2ncc(C#Cc3ccc(F)cc3)cc2C1=O`: in test [1], the half-maximal inhibitory concentration (IC50) is 37.7 µM.

For the compound `COc1ccc(S(=O)(=O)Nc2cccc3c2O[C@H](CN(C)Cc2ccc(Oc4ccccc4)cc2)[C@H](C)CN([C@@H](C)CO)C3=O)cc1`, the IC50 in test [1] was 9.4 µM.

Regarding `O=C(NCC[C@@H]1CC[C@@H](NC(=O)C2CC2)[C@@H](CO)O1)Nc1ccc(C(F)(F)F)cc1`, in test [1], the IC50 is 6.63 µM. Also, in test [2] (at 120 µM (top of the series)), the activity change, negative = inhibition is 2.33% (inactive).

Consider `C[C@H](O)C#Cc1ccc2c(c1)O[C@H](CN(C)C(=O)CN(C)C)[C@H](C)CN([C@H](C)CO)S2(=O)=O`, for which, in test [1], the IC50 was > 240 µM (inactive).

As for `CO[C@@H]1CN(C)C(=O)c2ccc(NC(=O)c3ccc(-c4ccccc4)cc3)cc2OC[C@@H](C)NC[C@@H]1C`, in test [1], the 50% inhibitory concentration (IC50) is 62.8 µM.

The record behind these values is PubChem BioAssay AID1259246 (Broad Institute, 2017).
